Test [1] has as its system MP104 (E. coli TOP10 expressing native OXA-48). Kind of test: MIC determination, TOP10 expressing native OXA-48 (MP104). The class given is cell-based. The conditions noted are these: Escherichia coli; Table 3; MP104, native OXA-48 in pCR-blunt II TOPO. The method, then: (§1) For MIC determination, single colonies were suspended in 0.9% saline buffer to a 0.5 McFarland standard and further diluted 1:100 in MH broth. Fifty microliters of the bacterial suspension was loaded onto in-house-designed and premade Sensititre microtiter plates (TREK Diagnostic Systems/Thermo Fisher Scientific, East Grinstead, United Kingdom). The plates were incubated for 20 h at 37°C. Antibiotic susceptibility testing was performed in duplicates.
For a functional resistance profile, the native and mutated blaOXA-48 genes were cloned in the pCR-blunt II-TOPO vector (Invitrogen, CA) and expressed in E. coli TOP10 (Invitrogen, CA). The PCR product was obtained by Phusion High Fidelity PCR mastermix with High Fidelity buffer (New England Biolabs, MA) and preOXA-48 primers ([61]). Transformants were selected on LB agar plates containing 50 or 100 mg/liter ampicillin. Insertion size was verified by Sanger sequencing using M13 forward (5′-[…]-3′) and reverse (5′-[…]-3′) primers.

For test [2], the system named is MP101 (MP100 transformed with p50579417_3_OXA-48). Briefly: MIC determination, MP101 (MG1655 with native OXA-48 plasmid). The class given is cell-based, Escherichia coli. Particulars: Escherichia coli; Table 6; MP101, native plasmid; read-out: MIC.
Source text: Mueller-Hinton (MH) agar and broth were purchased from Thermo Fisher Scientific (East Grinstead, United Kingdom). Luria-Bertani (LB) broth, LB agar, ampicillin, amoxicillin, cefepime, CAZ, imipenem, meropenem, piperacillin, and tazobactam were obtained from Sigma-Aldrich (St. Louis, MO). Nitrocefin was purchased from Merck (Darmstadt, Germany). The characteristics of the clinical E. coli strain 50579417 harboring the OXA-48 plasmid (p50579417_3_OXA-48) have been described previously ([61], [62]). The plasmid p50579417_3_OXA-48 was conjugated into rifampin-resistant E. coli TOP10 and subsequently isolated using a plasmid mini-purification kit (Qiagen, Germany). E. coli MG1655 (DA4201) was electroporated with p50579417_3_OXA-48 as published previously ([63]). Transformants positive for blaOXA-48 were checked by PCR using REDTaq ready mix (Sigma-Aldrich, St. Louis, MO) and preOXA-48 primers ([61]).
as §1

Test [3] concerns E. coli TOP10. Kind of test: microbe, parasite or virus in culture. It is filed as cell-based. Particulars: Escherichia coli. The procedure:
as §1

Test [4] concerns MP108 (MP100 transformed with p50579417_3_OXA-48-CAZ-AVI). Kind of test: MIC determination, MP108 (MG1655 with CAZ-AVI-adapted plasmid). The conditions noted are these: Escherichia coli; Table 6; MP108, adapted plasmid p50579417-OXA-48-CAZ-AVI. It is filed as cell-based. The procedure: as §1
For test [5], the system named is MP105 (E. coli TOP10 expressing OXA-48:P68A). Briefly: microbe, parasite or virus in culture. It is filed as cell-based. Particulars: Escherichia coli; Table 3; MP105, OXA-48:P68A in pCR-blunt II TOPO.
For test [6], the system named is MP107 (MP100 transformed with p50579417_3_OXA-48-CAZ). Kind of test: MIC determination, MP107 (MG1655 with CAZ-adapted plasmid). The class given is cell-based. The conditions noted are these: Escherichia coli; Table 6; MP107, adapted plasmid p50579417-OXA-48-CAZ. The method, then: as §1
The test system of test [7] is E. coli MG1655 (MP100). Briefly: microbe, parasite or virus in culture. It is filed as cell-based, Escherichia coli. Particulars: Escherichia coli, MG1655. The procedure: as §1
Test [8] has as its target OXA-48:P68A (Klebsiella pneumoniae, UniProt Q6XEC0, P68A). Briefly: Steady-state enzyme kinetics, OXA-48:P68A. The class given is biochemical. Particulars: substrate hydrolysis, 25°C, pH 7.0, error = 95% CI.

Converted amounts (≈) assume the structure as drawn. Like-named read-outs stand apart in the source and are kept apart here.

OXA-48:P68A, sequence (Q6XEC0 23-265 P68A): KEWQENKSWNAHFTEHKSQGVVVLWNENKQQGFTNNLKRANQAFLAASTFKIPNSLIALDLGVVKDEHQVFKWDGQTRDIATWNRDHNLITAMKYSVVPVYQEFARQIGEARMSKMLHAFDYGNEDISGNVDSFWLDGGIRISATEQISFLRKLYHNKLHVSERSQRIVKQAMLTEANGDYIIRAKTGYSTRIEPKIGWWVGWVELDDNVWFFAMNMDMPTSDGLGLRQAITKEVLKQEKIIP

As to `CO[C@@]1(NC(=O)C(C(=O)O)c2ccsc2)C(=O)N2[C@@H](C(=O)O)C(C)(C)S[C@@H]21` (stereo partly shown) [TRM, temocillin], the MIC in test [1] was 256 µg/mL (≈ 618 µM); in test [2], 256 µg/mL (≈ 618 µM); in test [3] (Table 3, read-out: MIC) it was 16 µg/mL (≈ 38.6 µM); in test [4], 32 µg/mL (≈ 77.2 µM); in test [5], 64 µg/mL (≈ 154 µM); in test [6], 128 µg/mL (≈ 309 µM). The MIC in test [7] (Table 6, MP100, read-out: MIC) was 8 µg/mL (≈ 19.3 µM).
With `O=C(Cc1cccs1)N[C@@H]1C(=O)N2C(C(=O)O)=C(/C=C/c3ccc([N+](=O)[O-])cc3[N+](=O)[O-])CS[C@H]12` [NIT, nitrocefin], in test [8], the kcat was determined as 37 ± 2 s⁻¹. In addition, the Km in test [8] (read-out: Km) amounted to 53 ± 8 µM.
As for `C[C@@H](O)[C@H]1C(=O)N2C(C(=O)O)=C(SCCN=CN)C[C@H]12` [IMI, imipenem], the MIC turned out to be 1 µg/mL (≈ 3.34 µM) in test [1]; 1 µg/mL (≈ 3.34 µM) in test [2]; 0.25 µg/mL (≈ 0.835 µM) in test [3]; 0.25 µg/mL (≈ 0.835 µM) in test [4]; 0.25 µg/mL (≈ 0.835 µM) in test [5]; 0.25 µg/mL (≈ 0.835 µM) in test [6]. Further, the MIC in test [7] came to 0.12 µg/mL (≈ 0.401 µM). Moreover, in test [8], the Km came out at 4.2 ± 0.9 µM. Also, the kcat in test [8] stood at 0.80 ± 0.04 s⁻¹.
With `C[C@@H](O)[C@H]1C(=O)N2C(C(=O)O)=C(S[C@@H]3CN[C@H](C(=O)Nc4cccc(C(=O)O)c4)C3)[C@H](C)[C@H]12` [ETP, ertapenem], the MIC in test [1] came to 1 µg/mL (≈ 2.1 µM); in test [2], 1 µg/mL (≈ 2.1 µM); in test [3] (Table 3, read-out: MIC) it was 0.015 µg/mL (≈ 0.0315 µM); in test [4] it was 0.12 µg/mL (≈ 0.252 µM); in test [5] it was 0.06 µg/mL (≈ 0.126 µM); in test [6] it was 0.25 µg/mL (≈ 0.526 µM). The MIC in test [7] (Table 6, MP100, read-out: MIC) came to 0.015 µg/mL (≈ 0.0315 µM).
For `C[C@@H](O)[C@H]1C(=O)N2C(C(=O)O)=C(S[C@@H]3CN[C@H](C(=O)N(C)C)C3)[C@H](C)[C@H]12` [MEM, meropenem], the MIC worked out at 0.25 µg/mL (≈ 0.652 µM) in test [1]; 0.25 µg/mL (≈ 0.652 µM) in test [2]; 0.03 µg/mL (≈ 0.0782 µM) in test [3] (Table 3, read-out: MIC); 0.06 µg/mL (≈ 0.156 µM) in test [4]; 0.03 µg/mL (≈ 0.0782 µM) in test [5]; 0.06 µg/mL (≈ 0.156 µM) in test [6]. Besides, the MIC in test [7] (Table 6, MP100, read-out: MIC) was 0.03 µg/mL (≈ 0.0782 µM). In test [8], the Km was found to be 3 ± 1 µM. Also, the kcat result in test [8] is given as “(8 ± 0.8) × 10^−4 s^−1”.
Consider `CCN1CCN(C(=O)N[C@@H](C(=O)N[C@@H]2C(=O)N3[C@@H]2SC(C)(C)[C@@H]3C(=O)O)c2ccccc2)C(=O)C1=O` [PIP, piperacillin], for which, in test [8] (read-out: Km), the Km amounted to 290 ± 67 µM.
With `CO/N=C(\C(=O)N[C@@H]1C(=O)N2C(C(=O)O)=C(COC(N)=O)CS[C@H]12)c1ccco1` [CXM, cefuroxime], the MIC in test [1] is 16 µg/mL (≈ 37.7 µM); in test [2] it was 16 µg/mL (≈ 37.7 µM); in test [3] (Table 3, read-out: MIC), 16 µg/mL (≈ 37.7 µM); in test [4] it was 8 µg/mL (≈ 18.9 µM); in test [5], 16 µg/mL (≈ 37.7 µM); in test [6], 16 µg/mL (≈ 37.7 µM). In test [7] (Table 6, MP100, read-out: MIC), the MIC was 8 µg/mL (≈ 18.9 µM).
On to `CO/N=C(\C(=O)N[C@@H]1C(=O)N2C(C(=O)O)=C(COC(C)=O)CS[C@H]12)c1csc(N)n1` [FOT, cefotaxime], for which the MIC in test [1] stood at 0.25 µg/mL (≈ 0.549 µM); in test [2], 0.5 µg/mL (≈ 1.1 µM); in test [3] (Table 3, read-out: MIC) it was 0.12 µg/mL (≈ 0.263 µM); in test [4], 0.25 µg/mL (≈ 0.549 µM); in test [5] it was 0.25 µg/mL (≈ 0.549 µM); in test [6], 1 µg/mL (≈ 2.2 µM). Also, the MIC in test [7] (Table 6, MP100, read-out: MIC) is 0.12 µg/mL (≈ 0.263 µM).
As to `CC1(C)S[C@@H]2[C@H](NC(=O)[C@H](N)c3ccccc3)C(=O)N2[C@H]1C(=O)O` [AMP, ampicillin], the kcat in test [8] was 25 ± 1 s⁻¹. Further, the Km in test [8] (read-out: Km) was determined as 77 ± 12 µM.
As for `CO/N=C(\C(=O)N[C@@H]1C(=O)N2C(C(=O)[O-])=C(C[N+]3(C)CCCC3)CS[C@H]12)c1csc(N)n1` [FEP, cefepime], the MIC came out at 0.12 µg/mL (≈ 0.25 µM) in test [1]; 0.25 µg/mL (≈ 0.52 µM) in test [2]; 0.06 µg/mL (≈ 0.125 µM) in test [3] (Table 3, read-out: MIC); 0.25 µg/mL (≈ 0.52 µM) in test [4]; 0.25 µg/mL (≈ 0.52 µM) in test [5]; 0.5 µg/mL (≈ 1.04 µM) in test [6]. Moreover, the MIC in test [7] (Table 6, MP100, read-out: MIC) is 0.06 µg/mL (≈ 0.125 µM). Further, the Km in test [8] worked out at 462 ± 126 µM. The kcat in test [8] is 0.5 ± 0.1 s⁻¹.
Consider `C[C@@H](O)[C@H]1C(=O)N2C(C(=O)O)=C(S[C@@H]3CN[C@H](CNS(N)(=O)=O)C3)[C@H](C)[C@H]12` [DOR, doripenem], for which the MIC in test [1] stood at 0.03 µg/mL (≈ 0.0713 µM); in test [2], 0.03 µg/mL (≈ 0.0713 µM); in test [3] (Table 3, read-out: MIC), 0.03 µg/mL (≈ 0.0713 µM); in test [4], 0.03 µg/mL (≈ 0.0713 µM); in test [5] it was 0.03 µg/mL (≈ 0.0713 µM); in test [6], 0.03 µg/mL (≈ 0.0713 µM). The MIC in test [7] (Table 6, MP100, read-out: MIC) is 0.015 µg/mL (≈ 0.0357 µM).

For the origin of these results see article PMC6437269, “OXA-48-Mediated Ceftazidime-Avibactam Resistance Is Associated with Evolutionary Trade-Offs” (mSphere, 2019).
